Assay [1] has as its target T1, binding of His-XIAP(BIR2)-avi fusion protein to GST-RIPK2 fusion protein (RIPK2/XIAP) (Homo sapiens, UniProt O43353).
T1 construct: made in house; host or cells: baculovirus infected Sf9 cells
Kind of assay: RIPK2-XIAP binding competition PPI assay (TR-FRET). The conditions noted are these: RIPK2/XIAP binding competition PPI assay; for Emax: Amax, read-out: PPI Amax bin; for IC50: read-out: PPI IC50 bin. In outline:
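Compounds (in DMSO, 100-fold stock) incubated 120 min at 23 °C with 1 nM GST-RIPK2 (aa 1-310) and 25 nM His-XIAP(BIR2 aa 152-231)-avi, plus anti-His-XL665 and anti-GST-Tb, in pH 7.5 Tris buffer. Read-out: 665/520 nm emission ratio. Normalized to no-inhibitor (0%) and 50 nM GSK583 (−100%); Amax binned A–D.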

The test system of assay [2] is NF-κB pathway (SEAP) in THP1-Dual cells. In words: THP-1 Dual cell SEAP assay (L18-MDP stimulated). It counts as cell-based. The conditions noted are these: Homo sapiens, THP1-Dual, read-out: NF-κB THP1 IC50 bin. In outline: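 THP1-Dual cells (~25,000/well) were preincubated 30 min with serially diluted compounds, then stimulated with 10 ng/mL L18-MDP (final) for 20-24 h at 37 °C. Supernatant SEAP was read with QUANTI-Blue at OD 620-655 nm after 2 h. IC50 came from non-linear fits of % inhibition versus DMSO/L18-MDP controls after media-blank subtraction.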

For assay [3], the target named is T2, GST-RIPK2 fusion protein (human RIPK2, amino acids 1-310) (Homo sapiens, UniProt O43353).
T2 construct: made in house; host or cells: baculovirus infected Sf9 cells
Kind of assay: RIPK2 binding competition assay (TR-FRET, Tracer 199 displacement). The following applies: 10 nM Tracer 199, 1 nM GST-RIPK2, read-out: RIPK2 IC50. In outline:
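GST-RIPK2 (human aa 1-310, Sf9-expressed; final 1 nM) with Tracer 199 (final 10 nM) and Tb-anti-GST (final 0.5 nM) in Tris pH 7.5 buffer, 45 min at 22 °C. TR-FRET 665/620 nm ratio after 337 nm excitation; normalized to no-inhibitor (0%) and no-protein (−100%), giving IC50.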
(In general: Time-resolved FRET reads energy transfer from a long-lived donor to a nearby acceptor.)

A value given as a limit tells only on which side of the number the result lay.

The IC50 is the point on the concentration scale where inhibition reaches its midpoint.

T1 sequence (O43353 1-310 limits assumed): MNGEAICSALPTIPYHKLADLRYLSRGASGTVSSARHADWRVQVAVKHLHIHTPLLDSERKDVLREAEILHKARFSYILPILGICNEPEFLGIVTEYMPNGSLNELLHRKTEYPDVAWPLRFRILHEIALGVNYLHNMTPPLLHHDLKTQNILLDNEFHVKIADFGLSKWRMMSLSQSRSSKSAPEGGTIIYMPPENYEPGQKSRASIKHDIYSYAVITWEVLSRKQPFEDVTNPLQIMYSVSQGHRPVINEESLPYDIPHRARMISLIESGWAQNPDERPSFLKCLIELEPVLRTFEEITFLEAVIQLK
T2 sequence (O43353 1-310): as the sequence (O43353 1-310 limits assumed) above

Regarding `CC(C)(C)S(=O)(=O)c1cn2c(-c3ccc4ccnn4c3)cnc2cc1OCCO` [Example 209, 2-((6-(tert-butylsulfonyl)-3-(pyrazolo[1,5-a]pyridin-6-yl)imidazo[1,2-a]pyridin-7-yl)oxy)ethan-1-ol], the Emax in assay [1] is 30 to 55%. Also, the values for the IC50 in assay [1], in assay [2] and in assay [3] were > 20 nM, > 1000 nM and > 20 nM, respectively.
For the molecule `CC(C)(C)S(=O)(=O)c1cn2c(-c3cc(Cl)c(N)nc3F)cnc2cc1OCCO` [Example 13, 2-((3-(6-amino-5-chloro-2-fluoropyridin-3-yl)-6-(tert-butylsulfonyl)imidazo[1,2-a]pyridin-7-yl)oxy)ethan-1-ol], in assay [1], the Emax was > 80%. Also, the figures for the IC50 in assay [1], in assay [2] and in assay [3] were 1 to 2.5 nM, 50 to 250 nM and 1 to 2.5 nM, respectively.
For the molecule `C[C@@H](CO)COc1cn2ncc(-c3cc(Cl)c(N)nc3F)c2cc1S(=O)(=O)C(C)(C)C` [Example 199, (S)-3-((3-(6-amino-5-chloro-2-fluoropyridin-3-yl)-5-(tert-butylsulfonyl)pyrazolo [1,5-a]pyridin-6-yl)oxy)-2-methylpropan-1-ol], the Emax in assay [1] was > 80%. Also, the results for the half-inhibitory concentration (IC50) in assay [1], in assay [2] and in assay [3] were < 1 nM, 50 to 250 nM and < 1 nM, respectively.
Turning to `COc1cc2ncc(-c3ccc4c(N)nccc4c3)n2cc1S(=O)(=O)C(C)(C)C` [Example 90, 6-(6-(tert-butylsulfonyl)-7-methoxyimidazo[1,2-a]pyridin-3-yl)isoquinolin-1-amine], the Emax in assay [1] was < 30%. The 50% inhibitory concentration (IC50) is > 20 nM in assay [1], 250 to 1000 nM in assay [2] and 2.5 to 20 nM in assay [3].
With `COc1cc2ncc(-c3cc(C)c4nn(C)cc4c3)n2cc1S(=O)(=O)C(C)(C)C` [Example 97, 5-(6-(tert-butylsulfonyl)-7-methoxyimidazo[1,2-a]pyridin-3-yl)-2,7-dimethyl-2H-indazole], the Emax in assay [1] is < 30%. The IC50 is > 20 nM in assay [1], > 1000 nM in assay [2] and 2.5 to 20 nM in assay [3].
For `CCCS(=O)(=O)Nc1cc(-c2cnc3cc(OC)c(C(=O)N(C)C(C)C)cn23)cc(F)c1OC` [Example 205, 3-(3-fluoro-4-methoxy-5-(propylsulfonamido)phenyl)-N-isopropyl-7-methoxy-N-methylimidazo[1,2-a]pyridine-6-carboxamide], the Emax in assay [1] was 55 to 80%. Moreover, the half-maximal inhibitory concentration (IC50) is > 20 nM in assay [1], > 1000 nM in assay [2] and > 20 nM in assay [3].
Turning to `C[C@@H](CO)COc1cn2ncc(-c3cc(F)c(N)nc3F)c2cc1S(=O)(=O)C(C)(C)C` [Example 194, (S)-3-((3-(6-amino-2,5-difluoropyridin-3-yl)-5-(tert-butylsulfonyl)pyrazolo [1,5-a]pyridin-6-yl)oxy)-2-methylpropan-1-ol], the Emax in assay [1] was > 80%. Moreover, the half-inhibitory concentration (IC50) in assay [1] was 1 to 2.5 nM; in assay [2] it was 50 to 250 nM; in assay [3], < 1 nM.
As to `COc1cc2ncc(-c3ccc4cncn4c3)n2cc1S(=O)(=O)C(C)(C)C` [Example 113, 6-(tert-butylsulfonyl)-3-(imidazo[1,5-a]pyridin-6-yl)-7-methoxyimidazo[1,2-a]pyridine], in assay [1], the Emax is < 30%. The values for the IC50 in assay [1], in assay [2] and in assay [3] were > 20 nM, > 1000 nM and > 20 nM, respectively.
In the case of `COc1cc2ncc(-c3ccc4nc(N)[nH]c4c3)n2cc1S(=O)(=O)C(C)(C)C` [Example 98, 6-(6-(tert-butylsulfonyl)-7-methoxyimidazo[1,2-a]pyridin-3-yl)-1H-benzo[d]imidazol-2-amine], in assay [1], the Emax is < 30%. For the same molecule, the IC50 in assay [1] is > 20 nM; in assay [2], > 1000 nM; in assay [3] it was 2.5 to 20 nM.
With `CC(C)(C)S(=O)(=O)c1cn2c(-c3ccc4[nH]ccc4c3)cnc2cc1OCCO` [Example 206, 2-((6-(tert-butylsulfonyl)-3-(1H-indol-5-yl)imidazo[1,2-a]pyridin-7-yl)oxy)ethan-1-ol], the Emax in assay [1] was 55 to 80%. Further, the results for the concentration for half-maximal inhibition (IC50) in assay [1], in assay [2] and in assay [3] were < 1 nM, 50 to 250 nM and 1 to 2.5 nM, respectively.

(Values after patent US20260137706A1, “METHODS OF TREATING INFLAMMATORY DISEASES” (INTERLINE THERAPEUTICS, INC., priority 2023, published 2026).)
